The experiment has as its target T1, PIM2 (Homo sapiens, UniProt Q9P1W9).
T1 construct: purchased Thermo Fisher Scientific (Life Technologies) SelectScreen
The experiment can be described thus: SelectScreen Z'LYTE. The experiment is classed as biochemical. The essentials: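 Percent values come from Thermo SelectScreen profiling of NU5455, combining activity and binding assays. CSF1R was run in Z'LYTE format at Km app ATP, and CAMK1 in Adapta format with ATP listed at 10.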

T1 sequence (Q9P1W9 whole entry): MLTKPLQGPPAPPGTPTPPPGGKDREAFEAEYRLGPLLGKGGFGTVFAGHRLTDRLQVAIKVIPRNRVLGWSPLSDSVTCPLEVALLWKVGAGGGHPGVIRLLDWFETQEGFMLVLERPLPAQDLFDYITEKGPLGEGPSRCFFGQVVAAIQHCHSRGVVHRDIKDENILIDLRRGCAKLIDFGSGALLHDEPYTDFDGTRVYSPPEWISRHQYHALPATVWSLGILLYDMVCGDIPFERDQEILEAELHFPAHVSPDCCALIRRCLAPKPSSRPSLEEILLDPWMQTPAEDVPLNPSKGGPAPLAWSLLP

The term inhibition denotes the relative decrease from the control value, in per cent. Turning to `CN(C(=O)CN1CCOCC1)c1ccc2sc3c(-c4cccc5c(=O)cc(N6CC7CCC(C6)O7)oc45)cccc3c2c1` [NU5455], the inhibition at 1 µM is -4.3%.
